Measured values taken from the supplement of paper PMC4862054.

What was measured:
Experiment in all cases: normalised response (% of control), CellTiter-Glo; higher = more viable cells (100 = DMSO, 0 = benzethonium chloride kill control)
Details in all cases: incubation time: 72 h
[1] = tested on: MFM-223
Summary of the method: (§1)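 Values are normalised signals, each belonging to one concentration of the series. Breast cancer cells (20 µl suspension) were seeded into 384-well plates with compound at 5 concentrations in 10-fold steps over a compound-specific 10,000-fold range and incubated 72 h. Readouts were CellTox Green fluorescence (485/520 nm), then CellTiter-Glo luminescence after 10 min at room temperature, with each plate set to 0.1 % DMSO as 100 and a positive kill control as 0.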

[2] = tested on: MDA-MB-468
Summary of the method: as §1

[3] = tested on: DU-4475
Summary of the method: as §1

[4] = tested on: CAL-85-1
Summary of the method: as §1

[5] = tested on: MDA-MB-436
Summary of the method: as §1

[6] = tested on: SK-BR-3
Summary of the method: as §1

[7] = tested on: HCC1937
Summary of the method: as §1

[8] = tested on: HCC1143
Summary of the method: as §1

[9] = tested on: MDA-MB-453
Summary of the method: as §1

[10] = tested on: CAL-51
Summary of the method: as §1

[11] = tested on: BT-474
Summary of the method: as §1

[12] = tested on: HDQ-P1
Summary of the method: as §1

[13] = tested on: MFM-223; remark: listed apart in the source
Summary of the method: as §1

[14] = tested on: MDA-MB-468; remark: listed apart in the source
Summary of the method: as §1

[15] = tested on: DU-4475; remark: listed apart in the source
Summary of the method: as §1

[16] = tested on: CAL-85-1; remark: listed apart in the source
Summary of the method: as §1

[17] = tested on: HCC1599
Summary of the method: as §1

[18] = tested on: MDA-MB-436; remark: listed apart in the source
Summary of the method: as §1

[19] = tested on: SK-BR-3; remark: listed apart in the source
Summary of the method: as §1

[20] = tested on: Hs578T
Summary of the method: as §1

[21] = tested on: BT-549
Summary of the method: as §1

[22] = tested on: CAL-120
Summary of the method: as §1

[23] = tested on: HCC1937; remark: listed apart in the source
Summary of the method: as §1

[24] = tested on: HCC1143; remark: listed apart in the source
Summary of the method: as §1

[25] = tested on: MDA-MB-231
Summary of the method: as §1

[26] = tested on: CAL-148
Summary of the method: as §1

[27] = tested on: MDA-MB-453; remark: listed apart in the source
Summary of the method: as §1

[28] = tested on: CAL-51; remark: listed apart in the source
Summary of the method: as §1

[29] = tested on: BT-474; remark: listed apart in the source
Summary of the method: as §1

[30] = tested on: HDQ-P1; remark: listed apart in the source
Summary of the method: as §1

[31] = tested on: MCF-10A
Summary of the method: as §1

| SMILES | normalised response [1] | normalised response [2] | normalised response [3] | normalised response [4] | normalised response [5] | normalised response [6] | normalised response [7] | normalised response [8] | normalised response [9] | normalised response [10] | normalised response [11] | normalised response [12] | normalised response [13] | normalised response [14] | normalised response [15] | normalised response [16] | normalised response [17] | normalised response [18] | normalised response [19] | normalised response [20] | normalised response [21] | normalised response [22] | normalised response [23] | normalised response [24] | normalised response [25] | normalised response [26] | normalised response [27] | normalised response [28] | normalised response [29] | normalised response [30] | normalised response [31] |
| --- | --- | --- | --- | --- | --- | --- | --- | --- | --- | --- | --- | --- | --- | --- | --- | --- | --- | --- | --- | --- | --- | --- | --- | --- | --- | --- | --- | --- | --- | --- | --- |
| COc1ccc(S(=O)(=O)Nc2cccnc2Nc2ccc(O)cc2)cc1 [ABT-751] (1000 nM) | 69.3% | 36.9% | 81.6% | 34.7% | 38.7% | 36.1% | 77.8% | 67.3% | 54.8% | 104% | 63.8% | 71.1% |  |  |  |  |  |  |  |  |  |  |  |  |  |  |  |  |  |  |  |
| COc1ccc(S(=O)(=O)Nc2cccnc2Nc2ccc(O)cc2)cc1 [ABT-751] (10000 nM) |  |  |  |  |  |  |  |  |  |  |  |  | 38.4% | 29.2% | 43.6% | 40.9% | 16.5% | 26.8% | 12.3% | 17.6% | 40.3% | 61.1% | 71.3% | 55.5% | 46.6% | 41.2% | 50.9% | 25.2% | 53.8% | 70.1% | 59.8% |
| Cc1cc(Nc2nc(N[C@@H](C)c3ncc(F)cn3)ncc2Cl)[nH]n1 [AZD1480] (100 nM) | 71.9% | 104% | 92.1% | 100% | 103% | 91.8% | 101% | 107% | 94.1% | 117% | 99.7% | 102% |  |  |  |  |  |  |  |  |  |  |  |  |  |  |  |  |  |  |  |
| CNC(=O)c1ccccc1Sc1ccc2c(/C=C/c3ccccn3)n[nH]c2c1 [Axitinib] (1000 nM) | 59.8% | 83.9% | 102% | 117% | 97.8% | 90.5% | 88.6% | 94.6% | 87.9% | 59.4% | 102% | 96.8% |  |  |  |  |  |  |  |  |  |  |  |  |  |  |  |  |  |  |  |
| CC(O)(CS(=O)(=O)c1ccc(F)cc1)C(=O)Nc1ccc(C#N)c(C(F)(F)F)c1 (configuration not stated) [Bicalutamide] (1000 nM) | 102% | 110% | 99% | 107% | 107% | 109% | 100% | 101% | 95% | 101% | 110% | 108% |  |  |  |  |  |  |  |  |  |  |  |  |  |  |  |  |  |  |  |
| CCNC(=O)CCC/C=C\C[C@@H]1[C@@H](/C=C/[C@@H](O)CCc2ccccc2)[C@H](O)C[C@@H]1O [Bimatoprost] (550 nM) | 90.3% | 95.2% | 98.3% | 96.3% | 108% | 88.7% | 94.5% | 92.5% | 93.2% | 102% | 96.7% | 95.4% |  |  |  |  |  |  |  |  |  |  |  |  |  |  |  |  |  |  |  |
| COc1cc(Nc2c(C#N)cnc3cc(OCCCN4CCN(C)CC4)c(OC)cc23)c(Cl)cc1Cl [Bosutinib] (1000 nM) | 84% | 81% | 99.8% | 72.2% | 87.8% | 97.1% | 78.8% | 84.7% | 94.9% | 77.2% | 90.7% | 51.2% |  |  |  |  |  |  |  |  |  |  |  |  |  |  |  |  |  |  |  |
| Cn1cc(C2=C(c3cn(C4CCN(Cc5ccccn5)CC4)c4ccccc34)C(=O)NC2=O)c2ccccc21 [Enzastaurin] (1000 nM) | 97.5% | 96.3% | 106% | 109% | 109% | 97.7% | 98.4% | 92.4% | 96.1% | 74.7% | 93.1% | 91.2% |  |  |  |  |  |  |  |  |  |  |  |  |  |  |  |  |  |  |  |
| CC(C)(C)NC(=O)[C@H]1CC[C@H]2[C@@H]3CC[C@H]4NC(=O)C=C[C@]4(C)[C@H]3CC[C@]12C [Finasteride] (1000 nM) | 103% | 104% | 96.8% | 95% | 108% | 102% | 99.6% | 96.6% | 103% | 94.6% | 98.9% | 105% |  |  |  |  |  |  |  |  |  |  |  |  |  |  |  |  |  |  |  |
| Nc1ccn([C@@H]2O[C@H](CO)[C@@H](O)C2(F)F)c(=O)n1 [Gemcitabine] (100 nM) | 101% | 28.4% | 74.5% | 43.1% | 32.6% | 41.5% | 79.2% | 44.1% | 67.7% | 24.4% | 81.8% | 86% |  |  |  |  |  |  |  |  |  |  |  |  |  |  |  |  |  |  |  |
| CC(C)C[C@H](NC(=O)[C@@H](COC(C)(C)C)NC(=O)[C@H](Cc1ccc(O)cc1)NC(=O)[C@H](CO)NC(=O)[C@H](Cc1c[nH]c2ccccc12)NC(=O)[C@H](Cc1cnc[nH]1)NC(=O)[C@@H]1CCC(=O)N1)C(=O)N[C@@H](CCCNC(=N)N)C(=O)N1CCC[C@H]1C(=O)NNC(N)=O [Goserelin] (1000 nM) | 99.6% | 94.3% | 96.3% | 98.2% | 93.8% | 94.3% | 98.2% | 92.3% | 106% | 100% | 101% | 101% |  |  |  |  |  |  |  |  |  |  |  |  |  |  |  |  |  |  |  |
| CC(=O)[C@]1(O)Cc2c(O)c3c(c(O)c2[C@@H](O[C@H]2C[C@H](N)[C@H](O)[C@H](C)O2)C1)C(=O)c1ccccc1C3=O [Idarubicin] (100 nM) | 117% | 64.5% | 83.1% | 91% | 65.7% | 83.4% | 98% | 102% | 140% | 42.6% | 92.3% | 103% |  |  |  |  |  |  |  |  |  |  |  |  |  |  |  |  |  |  |  |
| C/C(=C\c1csc(C)n1)[C@@H]1C[C@@H]2O[C@]2(C)CCC[C@H](C)[C@H](O)[C@@H](C)C(=O)C(C)(C)[C@@H](O)CC(=O)N1 [Ixabepilone] (100 nM) | 105% | 29.1% | 102% | 99.5% | 101% | 106% | 102% | 97.5% | 109% | 30.6% | 103% | 100% |  |  |  |  |  |  |  |  |  |  |  |  |  |  |  |  |  |  |  |
| C=CCn1c(=O)c2cnc(Nc3ccc(N4CCN(C)CC4)cc3)nc2n1-c1cccc(C(C)(C)O)n1 [MK1775] (1000 nM) | 41.2% | 43.4% | 65.6% | 18.7% | 30.8% | 14.4% | 39.6% | 43.2% | 50.1% | 18.5% | 33.3% | 35.9% |  |  |  |  |  |  |  |  |  |  |  |  |  |  |  |  |  |  |  |
| CO[C@@H]1[C@H](N(C)C(=O)c2ccccc2)C[C@H]2O[C@]1(C)n1c3ccccc3c3c4c(c5c6ccccc6n2c5c31)C(=O)NC4 [Midostaurin] (1000 nM) | 75.8% | 26.9% | 51.5% | 85.8% | 77.5% | 61.4% | 63.7% | 55.9% | 120% | 20.8% | 52.1% | 65.1% |  |  |  |  |  |  |  |  |  |  |  |  |  |  |  |  |  |  |  |
| CO[C@@]12[C@H](COC(N)=O)C3=C(C(=O)C(C)=C(N)C3=O)N1C[C@@H]1N[C@@H]12 [Mitomycin C] (1000 nM) | 90.1% | 86% | 96.9% | 95.6% | 88.3% | 96.7% | 95.2% | 99.4% | 97.9% | 60.2% | 90.2% | 97% |  |  |  |  |  |  |  |  |  |  |  |  |  |  |  |  |  |  |  |
| CCNC(=O)c1noc(-c2cc(C(C)C)c(O)cc2O)c1-c1ccc(CN2CCOCC2)cc1 [NVP-AUY922] (100 nM) | 43.4% | 28.7% | 0.04% | 20.5% | 44.6% | 35.8% | 28.7% | 36.8% | 32.3% | 14.8% | 25% | 23.5% |  |  |  |  |  |  |  |  |  |  |  |  |  |  |  |  |  |  |  |
| CC1(C)CCC(c2ccc(Cl)cc2)=C(CN2CCN(c3ccc(C(=O)NS(=O)(=O)c4ccc(N[C@H](CCN5CCOCC5)CSc5ccccc5)c(S(=O)(=O)C(F)(F)F)c4)cc3)CC2)C1 [Navitoclax] (1000 nM) | 85.8% | 82.8% | 85.9% | 90% | 95.3% | 85.5% | 83.4% | 82.9% | 80.9% | 90.8% | 58.1% | 73% |  |  |  |  |  |  |  |  |  |  |  |  |  |  |  |  |  |  |  |
| Cc1cn(-c2cc(NC(=O)c3ccc(C)c(Nc4nccc(-c5cccnc5)n4)c3)cc(C(F)(F)F)c2)cn1 [Nilotinib] (1000 nM) | 97.3% | 93% | 97.7% | 102% | 103% | 97.5% | 96.5% | 94% | 105% | 70.9% | 92.9% | 104% |  |  |  |  |  |  |  |  |  |  |  |  |  |  |  |  |  |  |  |
| O=C(CCCCCCC(=O)Nc1ccccc1)NO [Vorinostat] (1000 nM) | 91.6% | 69.4% | 86.5% | 93.7% | 89.6% | 89.5% | 85.2% | 90.2% | 61.2% | 72.2% | 89.4% | 85% |  |  |  |  |  |  |  |  |  |  |  |  |  |  |  |  |  |  |  |
